For assay [1], the target named is T1, GST-tagged recombinant human TYRO3 kinase domain (Homo sapiens, UniProt Q06418).
T1 construct: GST-tagged recombinant human TYRO3 kinase domain; purchased Carna PR7480A
T1 sequence (Q06418 518-790 limits assumed): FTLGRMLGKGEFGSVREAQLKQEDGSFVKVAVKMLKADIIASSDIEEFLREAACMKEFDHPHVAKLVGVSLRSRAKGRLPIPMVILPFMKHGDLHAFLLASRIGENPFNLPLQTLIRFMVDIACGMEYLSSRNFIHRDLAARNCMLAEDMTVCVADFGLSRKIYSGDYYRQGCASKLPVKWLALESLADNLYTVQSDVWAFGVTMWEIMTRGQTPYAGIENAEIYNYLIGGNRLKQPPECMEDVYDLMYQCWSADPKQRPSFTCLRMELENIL
The assay is described as follows: TYRO3 Enzyme Assay (LanthaScreen Eu Kinase Binding). The settings on record: averaged IC50; TYRO3 5 nM; 60-minute incubation at 22° C.; TR-FRET. As to the method:
Compounds disclosed herein were screened for their ability to inhibit TYRO3 kinase using Invitrogen's LanthaScreenTM Eu Kinase Binding technology. GST-tagged recombinant human TYRO3 kinase domain from Carna (5 nM; Cat. No. P[…]) was incubated with 20 nM Alexa-Fluor® Tracer 236 (P[…]) and 2 nM Europium-anti-GST (Cat. No. A15116) along with test compound in a buffer consisting of 25 mM HEPES, pH 7.4, 10 mM MgCl2, 0.01% Triton X-100, and 2% DMSO. Compounds are typically prepared in a threefold serial dilution in DMSO and added to the assay to give the appropriate final concentration. After a 60-minute incubation at 22° C., the reaction was measured using a PerkinElmer EnVision multimode plate reader via TR-FRET dual wavelength detection, and the percent of control (POC) calculated using a ratiometric emission factor. […] The POC values were fit to a 4 parameter logistic curve and the IC50 value is point where the curve crosses 50 POC.
(In TR-FRET formats the signal depends on donor and acceptor labels being close together.)

Assay [2] has as its target T2, human MET kinase del Ex14 (Homo sapiens, UniProt P08581, DEL963-1009).
T2 construct: GST-tagged recombinant human MET kinase domain; purchased Signal Chem
The assay can be described thus: c-Met Enzyme Assay, del Ex14 mutant. In kind it is binding. The conditions noted are these: averaged IC50; del Ex14 5 nM; 60-minute incubation at 22° C.; read-out: Del14 IC50. The protocol:
(§1) The affinity of compound binding to wild type and mutant human MET kinases was measured using Invitrogen's LanthaScreen™ Eu Kinase Binding technology. Briefly, GST-tagged recombinant human MET kinase domain from Signal Chem (see Table 8 below for concentration in assay) was incubated with 50 nM Alexa-Fluor® Tracer 236 (Invitrogen Cat No. PR9078A) and 2 nM Europium-anti-GST (Invitrogen Cat. No. A15116) along with test compound in a buffer consisting of 25 mM HEPES, pH 7.4, 10 mM MgCl2, 0.01% Triton X-100, 1mM DTT, and 2% DMSO. Compounds were typically prepared in a three-fold serial dilution in DMSO and added to the assay to give the appropriate final concentration. After a 60-minute incubation at 22° C., the reaction was measured using a PerkinElmer EnVision multimode plate reader via TR-FRET dual wavelength detection, and the percent of control (POC) calculated using a ratiometric emission factor. […] The POC values were fit to a 4 parameter logistic curve and the IC50 value is point where the curve crosses 50 POC.

Another assay has as its target T3, human MET kinase F1200I (Homo sapiens, UniProt P08581, F1200I).
T3 construct: GST-tagged recombinant human MET kinase domain; purchased Signal Chem
The assay is described as follows: c-Met Enzyme Assay, F1200I mutant. In kind it is binding. The conditions noted are these: averaged IC50; F1200I 2 nM; 60-minute incubation at 22° C. The protocol: as §1

T3 sequence (P08581 1078-1345 F1200I limits assumed): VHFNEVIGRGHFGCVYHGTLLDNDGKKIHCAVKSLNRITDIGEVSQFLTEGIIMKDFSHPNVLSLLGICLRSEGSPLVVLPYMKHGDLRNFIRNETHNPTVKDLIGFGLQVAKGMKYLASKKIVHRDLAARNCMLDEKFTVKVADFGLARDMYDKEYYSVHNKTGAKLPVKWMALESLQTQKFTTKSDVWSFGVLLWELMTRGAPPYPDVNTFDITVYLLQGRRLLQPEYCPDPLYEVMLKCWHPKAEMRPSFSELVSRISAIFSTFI
T2 sequence (P08581 with tags, fused parts or gaps DEL963-1009 limits assumed): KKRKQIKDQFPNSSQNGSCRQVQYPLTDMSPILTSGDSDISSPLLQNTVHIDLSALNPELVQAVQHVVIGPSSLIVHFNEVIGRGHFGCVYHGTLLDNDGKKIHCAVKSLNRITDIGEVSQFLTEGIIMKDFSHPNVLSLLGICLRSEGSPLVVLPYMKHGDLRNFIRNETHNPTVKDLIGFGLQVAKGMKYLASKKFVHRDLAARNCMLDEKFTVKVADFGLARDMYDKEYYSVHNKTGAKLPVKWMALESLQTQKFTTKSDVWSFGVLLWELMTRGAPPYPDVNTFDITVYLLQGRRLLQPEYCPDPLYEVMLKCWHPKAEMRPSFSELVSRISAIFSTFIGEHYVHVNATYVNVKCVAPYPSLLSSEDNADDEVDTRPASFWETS

As for `COc1cc2nccc(Oc3ccc(NC(=O)c4cn(C(C)C)cc(-c5ccc(F)cc5Cl)c4=O)nc3)c2cc1OC` [Example 18, 5-(2-chloro-4-fluorophenyl)-N-(5-((6,7-dimethoxyquinolin-4-yl)oxy)pyridin-2-yl)-1-isopropyl-4-oxo-1,4-dihydropyridine-3-carboxamide], the IC50 – broadly, the concentration needed to halve the response being measured – in assay [1] came to 4 nM; in assay [2], 3.2 nM; against human MET kinase F1200I, 4.3 nM.
On the same counts, the results for `COc1cc2nccc(Oc3ccc(NC(=O)c4cn(C(C)C)cc(-c5ccc(F)cc5C)c4=O)nc3)c2cc1OC` [Example 19, N-(5-((6,7-dimethoxyquinolin-4yl)oxy)pyridin-2-yl)-5-(4-fluoro-2-methylphenyl)-1-isopropyl-4-oxo-1,4-dihydropyridine-3-carboxamide] are 4 nM, 1.9 nM and 2.8 nM.
As to `COc1cc(-c2cn(C(C)C)cc(C(=O)Nc3ccc(Oc4ccnc5cc(OC)c(OC)cc45)cn3)c2=O)ccc1F` [Example 20, N-(5-((6,7-dimethoxyquinolin-4yl)oxy)pyridin-2-yl)-5-(4-fluoro-3-methoxyphenyl)-1-isopropyl-4-oxo-1,4-dihydropyridine-3-carboxamide], the concentration for half-maximal inhibition (IC50) in assay [1] came to 6 nM; in assay [2], 3.8 nM; at human MET kinase F1200I, 5.1 nM.
On the same counts, the results for `COc1cc2nccc(Oc3ccc(NC(=O)c4cn(C(C)C)cc(-c5ccc(F)c(Cl)c5)c4=O)nc3)c2cc1OC` [Example 21, 5-(3-chloro-4-fluorophenyl)-N-(5-((6,7-dimethoxyquinolin-4-yl)oxy)pyridin-2-yl)-1-isopropyl-4-oxo-1,4-dihydropyridine-3-carboxamide] are 26 nM, 13.6 nM and 16.2 nM.
In the same order, the values of `CNC(=O)Cn1cc(C(=O)Nc2ccc(Oc3ccnc4cc(OC)c(OC)cc34)cn2)c(=O)c(-c2ccc(F)cc2)c1` [Example 22] are 14 nM, 3.1 nM and 2.5 nM.
`COc1cc2nccc(Oc3ccc(NC(=O)c4cn(CC(=O)N(C)C)cc(-c5ccc(F)cc5)c4=O)nc3)c2cc1OC` [Example 23, N-(5-((6,7-dimethoxyquinolin-4yl)oxy)pyridin-2-yl)-1-(2-(dimethylamino)-2-oxoethyl)-5-(4-fluorophenyl)-4-oxo-1,4-dihydropyridine-3-carboxamide]: the results for the 50% inhibitory concentration (IC50) (in assay [1]; in assay [2]; on human MET kinase F1200I) were 14 nM, 2.9 nM and 4.3 nM, respectively.
In the same order, the values of `COc1cc2nccc(Oc3ccc(NC(=O)c4cn(CC(=O)N(C)C)cc(-c5ccc(F)c(F)c5)c4=O)nc3)c2cc1OC` [Example 24, 5-(3,4-difluorophenyl)-N-(5-((6,7-dimethoxyquinolin-4-yl)oxy)pyridin-2-yl)-1-(2-(dimethylamino)-2-oxoethyl)-4-oxo-1,4-dihydropyridine-3-carboxamide] are 54 nM, 10.5 nM and 11.2 nM.
Regarding `COc1cc2nccc(Oc3ccc(NC(=O)c4cn(CC(=O)N(C)C)cc(-c5ccc(Cl)cc5)c4=O)nc3)c2cc1OC` [Example 25], the half-inhibitory concentration (IC50) in assay [1] amounted to 54 nM; in assay [2] it was 9.5 nM; on human MET kinase F1200I it was 11.5 nM.
On the same counts, the results for `COc1cc2nccc(Oc3ccc(NC(=O)c4c[nH]cc(-c5ccc(F)cc5)c4=O)nc3)c2cc1OC` [Example 26, N-(5-((6,7-dimethoxyquinolin-4yl)oxy)pyridin-2-yl)-5-(4-fluorophenyl)-4-oxo-1,4-dihydropyridine-3-carboxamide] are 15 nM, 5.2 nM and 6.4 nM.
As to `COc1cc2nccc(Oc3ccc(NC(=O)c4cn(C(C)C)c(C)c(-c5ccc(F)cc5)c4=O)nc3)c2cc1OC` [Example 27, N-(5-((6,7-dimethoxyquinolin-4yl)oxy)pyridin-2-yl)-5-(4-fluorophenyl)-1-isopropyl-6-methyl-4-oxo-1,4-dihydropyridine-3-carboxamide], the 50% inhibitory concentration (IC50) in assay [1] came out at 3 nM; in assay [2], 1.1 nM; against human MET kinase F1200I it was 1.6 nM.
In the same order, the values of `COc1cc2nccc(Oc3ccc(NC(=O)c4cn(C(C)C)c(C)c(-c5ccc(F)c(F)c5)c4=O)nc3)c2cc1OC` [Example 28, 5-(3,4-difluorophenyl)-N-(5-((6,7-dimethoxyquinolin-4yl)oxy)pyridin-2-yl)-1-isopropyl-6-methyl-4-oxo-1,4-dihydropyridine-3-carboxamide] are 7 nM, 1.9 nM and 2.4 nM.
In the same order, the values of `CCc1c(-c2ccc(F)cc2)c(=O)c(C(=O)Nc2ccc(Oc3ccnc4cc(OC)c(OC)cc34)cn2)cn1C(C)C` [Example 29, N-(5-((6,7-dimethoxyquinolin-4yl)oxy)pyridin-2-yl)-6-ethyl-5-(4-fluorophenyl)-1-isopropyl-4-oxo-1,4-dihydropyridine-3-carboxamide] are 6 nM, 2.5 nM and 3.2 nM.
On the same counts, the results for `COc1ccc(-c2cn(C(C)C)cc(C(=O)Nc3ccc(Oc4ccnc5cc(OC)c(OC)cc45)cn3)c2=O)cc1` [Example 30, N-(5-((6,7-dimethoxyquinolin-4yl)oxy)pyridin-2-yl)-1-isopropyl-5-(4-methoxyphenyl)-4-oxo-1,4-dihydropyridine-3-carboxamide] are 20 nM, 50.3 nM and 59.1 nM.
With `COc1ccc(-c2cn(C(C)C)cc(C(=O)Nc3ccc(Oc4ccnc5cc(OC)c(OC)cc45)cn3)c2=O)c(F)c1` [Example 31, N-(5-((6,7-dimethoxyquinolin-4yl)oxy)pyridin-2-yl)-5-(2-fluoro-4-methoxyphenyl)-1-isopropyl-4-oxo-1,4-dihydropyridine-3-carboxamide], the half-maximal inhibitory concentration (IC50) in assay [1] was 23 nM; in assay [2], 44.7 nM; at human MET kinase F1200I, 46.5 nM.
In the same order, the values of `COc1cc2nccc(Oc3ccc(NC(=O)c4cn(C(C)C)cc(-c5ccc(F)cc5OC)c4=O)nc3)c2cc1OC` [Example 32, N-(5-((6,7-dimethoxyquinolin-4yl)oxy)pyridin-2-yl)-5-(4-fluoro-2-methoxyphenyl)-1-isopropyl-4-oxo-1,4-dihydropyridine-3-carboxamide] are 9 nM, 3.2 nM and 4.2 nM.
On the same counts, the results for `COc1ccc2nccc(Oc3ccc(NC(=O)c4cn(C(C)C)c(C)c(-c5ccc(F)cc5)c4=O)nc3)c2c1` [Example 33, 5-(4-fluorophenyl)-1-isopropyl-N-(5-((6-methoxyquinolin-4-yl)oxy)pyridin-2-yl)-6-methyl-4-oxo-1,4-dihydropyridine-3-carboxamide] are 10 nM, 4.9 nM and 4.6 nM.
In the same order, the values of `COc1cc2nccc(Oc3ccc(NC(=O)c4cn(CCC(C)C)cc(-c5ccc(F)cc5)c4=O)nc3)c2cc1OC` [Example 34, N-(5-((6,7-dimethoxyquinolin-4yl)oxy)pyridin-2-yl)-5-(4-fluorophenyl)-1-isopentyl-4-oxo-1,4-dihydropyridine-3-carboxamide] are 14 nM, 5.7 nM and 7.4 nM.
Turning to `COc1cc2nccc(Oc3ccc(NC(=O)c4cn(CCC(C)C)cc(-c5ccc(F)cc5F)c4=O)nc3)c2cc1OC` [Example 36, 5-(2,4-difluorophenyl)-N-(5-((6,7-dimethoxyquinolin-4yl)oxy)pyridin-2-yl)-1-isopentyl-4-oxo-1,4-dihydropyridine-3-carboxamide], the concentration for half-maximal inhibition (IC50) in assay [1] was 14 nM; in assay [2], 2.4 nM; on human MET kinase F1200I, 3.2 nM.
In the same order, the values of `COc1cc2nccc(Oc3ccc(NC(=O)c4cn(CCC(C)C)cc(-c5ccc(Cl)cc5)c4=O)nc3)c2cc1OC` [Example 37] are 30 nM, 12.2 nM and 16.4 nM.

The values above are taken from US20200216416A1, “QUINOLINE COMPOUNDS AS INHIBITORS OF TAM AND MET KINASES” (Array BioPharma Inc., priority 2019, published 2020).
